Measurements: US20220267365A1, “NOVEL PHOSPHATE ESTER COMPOUND HAVING PYRROLOPYRIMIDINE SKELETON OR PHARMACEUTICALLY ACCEPTABLE SALT THEREOF” (TAIHO PHARMACEUTICAL CO., LTD., priority 2019, published 2022)
Counter-ions that a name gives are not always drawn.

What was measured:
H2122 = experiment: Test Example 4 growth suppression activity, CellTiter-Glo; assay type: cell-based; conditions: NCI-H2122, 72 h; H2122, Human lung cancer, 3 days
Method: (§1) Human tumor cell lines different in type were suspended in mediums, seeded in individual wells of a multi-well plate and cultured. On the day after initiation of culture, serially diluted solutions of a compound were added. Culture was carried out for further 3 days. Cells were counted by a CellTiter-Glo (manufactured by Promega KK) in accordance with the protocol recommended by Promega KK. Cell viability was calculated in accordance with the equation shown below and the concentration (IC50 (nM)) of the compound at which 50% of cell growth is inhibited was obtained.
(§2) Cell viability (%)=(T/C)×100
(§3) T: Intensity of light emitted from a well containing a compound
(§4) C: Intensity of light emitted from a well containing no compound

H358 = experiment: as above; assay type: cell-based; conditions: NCI-H358, 72 h; H358, Human lung cancer, 3 days
Method: as §1, §2, §3, §4

A549 = experiment: as above; assay type: cell-based; conditions: 72 h; A549, Human lung cancer, 3 days
Method: as §1, §2, §3, §4

H1650 = experiment: as above; assay type: cell-based; conditions: NCI-H1650, 72 h; H1650, Human lung cancer, 3 days
Method: as §1, §2, §3, §4

[1] = Test Example 1: presence of prodrug in mouse and absorbency, oral administration, plasma AUC; assay type: in vivo, mice (Balb/cA, male); conditions: for presence of prodrug in mouse (conversion into active compound): oral administration
Method: The dosage amounts of the compound of Comparative Example 1, a triethylamine salt of the compound of Example 1, the compound of Comparative Example 2 and the compound of Example 2 were set to be 50 mg/10 mL/kg, 62 mg/10 mL/kg (50 mg/10 mL/kg in terms of free compound), 3 mg/10 mL/kg, and 3.6 mg/10 mL/kg, respectively. Solutions for administration were prepared with a 0.5% aqueous solution of HPMC so as to satisfy the above dosage amounts. Note that a solution for administration of a triethylamine salt of the compound of Example 1 was prepared by adding 1 molar equivalent of triethylamine.
The dosage amounts of the compound of Comparative Example 3 and the compound of Example 5 were set to be 3 mg/10 mL/kg and 3.8 mg/10 mL/kg, respectively. Solutions thereof for administration were prepared with a 0.5% aqueous solution of HPMC so as to satisfy the above dosage amounts.
Note that, the “mg/10 mL/kg” means as follows: for example “50 mg/10 mL/kg” means that 50 mg of a test compound per body-weight (1 kg) of a mouse was dispersed or dissolved in a solution (10 mL) for administering a compound. The same applies hereinafter.
The solutions for administration prepared above were orally administered to mice (Balb/cA, male) not fasted each by use of an oral administration sonde.
The mice were anesthetized with isoflurane 0.5, 1, 2, 4 and 6 hours after administration and blood was taken from the facial vein by use of a specific needle (animal lancet) and a heparin-coated hematocrit tube.
The blood sampled was immediately centrifuged (13000 rpm, 2 minutes, 4° C.) to prepare the plasma samples. After proteins were removed from the plasma samples, the concentrations of the test compound in the plasma samples were measured by LC/MS/MS.
The value of “area under the curve” (AUC) of drug concentration in blood versus time was calculated using analysis software such as Phoenix (registered trademark) WinNonlin (registered trademark).
More specifically, the results of the compounds of Comparative Examples 1 and 2 and triethylamine salt of Example 1, and the compound of Example 2 are shown in Table 2; whereas, the results of the compounds of Comparative Example 3 and Example 5 are shown in Table 3. In Table 2 and Table 3, “Comparative Example 1”, “Comparative Example 2”, and “Comparative Example 3” represent the “compound (Br form) of Comparative Example 1”, the “compound (I form) of Comparative Example 2” and the “compound (Cl form) of Comparative Example 3”, respectively.

DU145 = experiment: Test Example 3 growth suppression activity, CellTiter-Glo; assay type: cell-based; conditions: DU-145, 72 h; DU145, Human prostate cancer, 3 days
Method: Human tumor cell lines different in type were suspended in mediums, seeded in individual wells of a multi-well plate and cultured. On the day after initiation of culture, serially diluted solutions of a compound were added. Culture was carried out for further 3 days. Cells were counted by a CellTiter-Glo (manufactured by Promega KK) in accordance with the protocol recommended by Promega KK. Cell viability was calculated in accordance with the equation shown below and the concentration (IC50 (μM)) of the compound at which 50% of cell growth is inhibited was obtained.
as §2, §3, §4

[2] = Test Example 2: presence of prodrug in mouse and absorbency, caudal vein administration, plasma AUC; assay type: in vivo, mice (Balb/cA, male); conditions: for AUC(0-t): male, Balb/cA, caudal vein, physiological saline, mouse plasma, unchanged prodrug; for presence of prodrug in mouse (conversion into active compound): caudal vein administration of disodium salts
Method: The dosage amounts of a disodium salt of the compound of Example 1, a disodium salt of the compound of Example 2, a disodium salt of the compound of Example 3, a disodium salt of the compound of Example 4 and a disodium salt of the compound of Example 5 were set to be 26 mg/5 mL/kg, 12 mg/5 mL/kg, 12 mg/5 mL/kg, 12 mg/5 mL/kg, and 11 mg/5 mL/kg, respectively. Solutions for administration were prepared by dissolving the compounds in physiological saline so as to satisfy the above dosage amounts, respectively. Note that solutions for administration of disodium salts of the compounds of Examples 1 to 4 were prepared by adding 2 molar equivalents of sodium hydroxide.
Mice (Balb/cA, male) not fasted were each immobilized on a specific fixed table, sterilized with ethanol for disinfection. Each of the solutions prepared above was administered through the caudal vein by use of a syringe and a needle.
Blood was taken from the facial vein, 0.25, 0.5, 1, 2, 4 and 6 hours after administration by use of a specific needle (animal lancet) and a heparin-coated hematocrit tube.
The blood sampled were immediately centrifuged (13000 rpm, 2 minutes, 4° C.) to prepare the plasma samples. After proteins were removed from the plasma samples, the concentrations of the test compound in the plasma samples were measured by LC/MS/MS.
The value of AUC was calculated using analysis software such as Phoenix (registered trademark), WinNonlin (registered trademark).
The AUC (AUC 0-6 hr) values obtained in the time period of 0 to 6 hours after administration of sodium salts of the compounds of Example 1 to 4 are shown in Table 4; and the AUC (AUC 0-6 hr) values obtained in the time period of 0 to 6 hours after administration of a sodium salt of the compound of Example 5 are shown in Table 5. In Table 4 and Table 5, “Comparative Example 1”, “Comparative Example 2” and “Comparative Example 3” represent the “compound (Br form) of Comparative Example 1”, the “compound (I form) of Comparative Example 2”, and the “compound (Cl form) of Comparative Example 3”, respectively.

[3] = test system: human brain tumor cell line (U-87 MG); experiment: Test Example 6: antitumor effect and toxicity in mouse, subcutaneous U-87 MG transplant; assay type: in vivo, BALB/cA Jcl-nu/nu mice
Method: The day of grouping mice was determined Day 0.
TV (mm^3)=(major axis×minor axis^2)/2
RTV=(TV on evaluation date)/(TV on Day 0)
IR (%)=(1−(RTV of administration group on evaluation date)/(RTV of control group on evaluation date))×100

[4] = test system: human hematopoietic organ tumor cell line (MV-4-11); experiment: Test Example 7: antitumor effect and toxicity in mouse, subcutaneous MV-4-11 transplant
Method: A human hematopoietic organ tumor cell line (MV-4-11) was subcutaneously transplanted in the right chest of each of BALB/cA Jcl-nu/nu mice. After tumor transplantation, the major axes (mm) and minor axes (mm) of the tumors were measured and tumor volumes (TV) were calculated. The mice were assigned to individual groups such that the average TVs of the groups became equal. The day of grouping mice was determined Day 0.
Thereafter, administration was continued as long as a weight loss was acceptable and then evaluated.
The tumor volumes (TV) and body weights (BW) of individual groups were evaluated. As the indexes of antitumor effect and toxicity, the relative tumor volume (RTV) to that of Day 0 and a body weight change (BWC) relative to that of Day 0 were obtained, respectively, in accordance with the following equations and plotted on a chart.
BWC (%)=(BW on evaluation date−BW on Day 0)/(BW on Day 0)×100
T/C (%)=(Number of blood cell component in administration group/Number of blood cell component in control group)×100

[5] = iv, 12 mg/kg, read-out: AUC 0-6 hr in terms of the administered Example compound

Nc1ncnc2c1c(Br)cn2[C@@H]1O[C@H](CO)[C@@H](O)[C@@H]1F [Comparative Example 1, (2R,3R,4S,5R)-5-(4-amino-5-bromo-7H-pyrrolo[2,3-d]pyrimidin-7-yl)-4-fluoro-2-(hydroxymethyl) tetrahydrofuran-3-ol]
IC50 (H2122): 17 nM | IC50 (H358): 69 nM | IC50 (A549): 24 nM | IC50 (H1650): 11 nM | AUC(0-t) ([1]; male, Balb/cA, oral, 50 mg/kg (0.14 mmol/kg), 0.5% HPMC, mouse plasma, administered compound, read-out: AUC 0-6 hr): 20.2 µM·h | IC50 (DU145): 90 nM

Nc1ncnc2c1c(Br)cn2[C@@H]1O[C@H](COP(=O)(O)O)[C@@H](O)[C@@H]1F [Disodium salt of Example 1, ((2R,3R,4S,5R)-5-(4-amino-5-bromo-7H-pyrrolo[2,3-d]pyrimidin-7-yl)-4-fluoro-3-hydroxytetrahydrofuran-2-yl)methyl dihydrogen phosphate]
AUC(0-t) ([2]; iv, 26 mg/kg, read-out: AUC 0-6 hr in terms of Example 1): 0.15 µM·h

Nc1ncnc2c1c(I)cn2[C@@H]1O[C@H](COP(=O)(O)O)[C@@H](O)[C@@H]1F [Disodium salt of Example 2, ((2R,3R,4S,5R)-5-(4-amino-5-iodo-7H-pyrrolo[2,3-d]pyrimidin-7-yl)-4-fluoro-3-hydroxytetrahydrofuran-2-yl)methyl dihydrogen phosphate]
AUC(0-t) [2, 5]: 0.64 µM·h

Nc1ncnc2c1c(I)cn2[C@@H]1O[C@H](COP(O)(O)=S)[C@@H](O)[C@@H]1F [Disodium salt of Example 3, O-(((2R,3R,4S,5R)-5-(4-amino-5-iodo-7H-pyrrolo[2,3-d]pyrimidin-7-yl)-4-fluoro-3-hydroxytetrahydrofuran-2-yl)methyl) O,O-dihydrogen phosphorothioate]
AUC(0-t) [2, 5]: 0.18 µM·h

Nc1ncnc2c1c(I)cn2[C@@H]1O[C@H](CO)C(OP(=O)(O)O)C1F (stereo partly drawn) [Disodium salt of Example 4, (2R,3R,4S,5R)-5-(4-amino-5-iodo-7H-pyrrolo[2,3-d]pyrimidin-7-yl)-4-fluoro-2-(hydroxymethyl) tetrahydrofuran-3-yl dihydrogen phosphate]
AUC(0-t) [2, 5]: 9.35 µM·h

Nc1ncnc2c1c(Cl)cn2[C@@H]1O[C@H](COP(=O)(O)O)[C@@H](O)[C@@H]1F [Disodium salt of Example 5, ((2R,3R,4S,5R)-5-(4-amino-5-chloro-7H-pyrrolo[2,3-d]pyrimidin-7-yl)-4-fluoro-3-hydroxytetrahydrofuran-2-yl)methyl dihydrogen phosphate]
AUC(0-t) ([2]; intravenous, 11 mg/kg, read-out: AUC 0-6 hr in terms of Example 5): 0.08 µM·h

Nc1ncnc2c1c(Br)cn2[C@@H]1O[C@H](COP(=O)(O)O)[C@@H](O)[C@@H]1F [Example 1, ((2R,3R,4S,5R)-5-(4-amino-5-bromo-7H-pyrrolo[2,3-d]pyrimidin-7-yl)-4-fluoro-3-hydroxytetrahydrofuran-2-yl)methyl dihydrogen phosphate]
presence of prodrug in mouse (conversion into active compound) [2]: prodrug of the compound (Br form) of Comparative Example 1 | presence of prodrug in mouse (conversion into active compound) [1]: prodrug of the compound (Br form) of Comparative Example 1

Nc1ncnc2c1c(I)cn2[C@@H]1O[C@H](COP(=O)(O)O)[C@@H](O)[C@@H]1F [Example 2, ((2R,3R,4S,5R)-5-(4-amino-5-iodo-7H-pyrrolo[2,3-d]pyrimidin-7-yl)-4-fluoro-3-hydroxytetrahydrofuran-2-yl)methyl dihydrogen phosphate]
continuation of administration compared to Comparative Example 2-compound administration group ([3]; administration continued until weight loss 20% or more, Day 13 vs Day 6): continued longer | effect on body weight (BWC) ([3]; oral 14.4 mg/kg/day every day): mild | antitumor effect (IR based on RTV) ([3]; oral 14.4 mg/kg/day every day, final day of evaluation Day 13, compared with Comparative Example 2 12 mg/kg/day, Day 6): high antitumor effect | presence of prodrug in mouse (conversion into active compound) [1]: prodrug of the compound (I form) of Comparative Example 2 | continuation of administration compared to Comparative Example 2-compound administration group ([4]; Day 15 vs Day 11 (Comparative Example 2 oral 12 mg/kg/day)): continued longer | effect on body weight (BWC) ([4]; osmotic pump 20 mg/kg/day for 14 days): low | hematological toxicity (lymphocytes, monocytes T/C) ([4]; osmotic pump 20 mg/kg/day for 14 days, Day 15): low | antitumor effect (RTV) ([4]; osmotic pump 20 mg/kg/day for 14 days, final day Day 15): remarkable antitumor effect (tumor regression was confirmed)

Nc1ncnc2c1c(Cl)cn2[C@@H]1O[C@H](COP(=O)(O)O)[C@@H](O)[C@@H]1F [Example 5, ((2R,3R,4S,5R)-5-(4-amino-5-chloro-7H-pyrrolo[2,3-d]pyrimidin-7-yl)-4-fluoro-3-hydroxytetrahydrofuran-2-yl)methyl dihydrogen phosphate]
presence of prodrug in mouse (conversion into active compound) [2]: prodrug of the compound (Cl form) of Comparative Example | presence of prodrug in mouse (conversion into active compound) [1]: prodrug of the compound (Cl form) of Comparative Example 3
